Measured values reported in patent US7351855B2, “Chemically defined non-polymeric valency platform molecules and conjugates thereof” (La Jolla Pharmaceutical Company, priority 1993, dated 2008).
No end group written: not given here.

Columns and labels:
[1] = system: cultured T cell from melittin-immunized mice; assay: Murine lymph node proliferation assay ([3H]thymidine uptake); type: cell-based, Balb/c mice; conditions: T cells from mice primed with melittin; 10, 1.0 or 0.1 μg/mL; FIG. 8
Method: Femal Balb/c mic (6-8 weeks old; Jackson Laboratory, Bar Harbor, Me.) were obtained and housed at the La Jolla Pharmaceutical animal facility according to National Institutes of Health guidelines. Food and water was provided ad libitum. Balb/c mice were immunized in each hind footpad with 50 μg of melittin molecule in Complete Freund's Adjuvant (CFA) (Sigma Chemical Co., St. Louis, Mo.). Popliteal lymph nodes were harvested aseptically seven days later. Lymph nodes were gently dissociated by teasing the cells through a 50 mesh sieve screen. The single cell suspension was washed in RPMI-1640 (Irvine Scientific, Irvine Calif.) containing glutamine, penicillin and streptomycin. 5×10^5 cells in RPMI medium supplemented with 10% fetal bovine serum (FCS) in quadruplicate wells of round bottom 96-well Corning microtitration plates were-cultured with melittin or a melittin peptide at 10, 1.0 or 0.1 μg/mL. Cells in the positive control wells were cultured with murine interleukin 2 (IL-2) at 100 or 50 U/mL, PHA (phytohemagglutinin) at 1 μg/mL. The negative control wells contained lymph node cells in RPM-1640 and 10% FCS. The cells were cultured for 4 days in a 37° C. incubator with 5% CO2. Each well was pulsed with 1 μCi of [^3H]thymidine (ICN Biochemicals, Costa Mesa, Calif.) for an additional 18 hours. Cells were harvested onto a glass fiber filter mat using a semiautomatic cell harvester (Scatron, Sterling, Va.). Incorporation of [^3H]thymidine was determined by liquid scintillation. The results were expressed as average counts per minute.

[2] = system: peptide-specific pfc; assay: pfc assay: melittin peptide-specific IgG pfc in spleens of mice primed and boosted with melittin; type: in vivo, C57BL/6 mice; conditions: Table 7
Method: Female C57BL/6 mice, ages 5 to 8 weeks were purchased from The Jackson Laboratory, Bar Harbor, Me. Animals were maintained and treated accordingly to National Institutes of Health guidelines.
Mice were primed by an i.p. injection containing 5 μg of melittin precipitated on alum and 2×10^9 B. pertussis (Michigan Department of Public Health, Lansing, Mich.) as an adjuvant. The mice were boosted with 5 μg of melittin, i.p., in PBS.
Sheep Red Blood Cells (SRBC) (Colorado Serum Co., Denver, Colo.) were conjugated with melittin-peptide […] using carbodiimide. Fresh SRBC (less than 2 weeks old) were washed four times with cold saline and one time with mannitol (0.35 M mannitol, 0.01 M NaCl). The SRBC were suspended in mannitol to a concentration of 10% (v/v). 100 μL of mannitol containing 30 μg of melittin peptide #3 were added to 1 mL aliquots of 10% SRBC which were then incubated on ice for 10 minutes. 100 μL of a 100 mg/mL solution of 1-ethyl-3 (3-dimethylaminopropyl)-carbodiimide HCl (EDCI) was then added and incubated on ice for 30 minutes. The SRBC were washed twice with Balanced Salt Solution (BSS) (Irvine Scientific Co, Irvine, Calif.) and resuspended to 10% (v/v). Lyophilized guinea pig complement (GIBCO, New York, N.Y.) was reconstituted with BSS and then diluted 1:3 with BSS. One mL of the diluted guinea pig complement was added to 3 mL of conjugated SRBC. Rabbit anti-mouse IgG was added to give a final dilution of 1:100 of the rabbit antiserum. This concentration was predetermined to inhibit all IgM pfc while enhancing the maximum number of IgG pfc. An equal volume of this complement/anti-mouse IgG/SRBC suspension was mixed with a cell suspension of mouse spleen cells taken from a single mouse. 50 μL of each mixture was transferred to the chambers of a Cunningham slide (three chambers per slide). The edges were then sealed with paraffin and incubated at 37° C. for one hour. The number of plaques per chamber was counted with the aid of a dissecting microscope. Each spleen suspension was also assayed using non-conjugated SRBC as a control. The number of viable cells, in each spleen cell suspension, was determined. The number of pfc per 10^6 spleen cells was determined for each chamber and the mean of the triplicates calculated. The number of pfc for non-conjugated SRBC was subtracted from the number of pfc for conjugated SRBC to determine the number of peptide-specific pfc.
Two different tolerogens were constructed to determine if the orientation of the peptide on the PEG conjugate affects its ability to induce tolerance. The peptide was covalently bound to valency platform molecule 3 through its C-terminal end to make melittin conjugate 3. Groups (3/group) of mice primed with melittin were treated, i.p., with conjugates or with saline. Five days later all of the mice, including the non-treated control group, were boosted with […] of melittin. Six days later the mice were sacrificed, their spleens were harvested and the number of peptide specific pfc determined. As-illustrated in Table 8, both orientations were effective in reducing the number of peptide-specific pfc/10^6 spleen cells in mice primed and boosted with the parent protein Melittin.
Three different conjugates, each with a different number of peptides per PEG conjugate, were constructed to determine if the ratio of peptides to PEG molecule was important. Conjugate 1 had only two peptides per PEG conjugate. Another had four peptides per PEG conjugate (Conjugate 2). The third had eight peptides per PEG conjugate (Conjugate 5). Groups (3/group) of mice primed with melittin were treated, i.p., with the different conjugates or with saline. Five days later all of the nice, including the non-treated control group, were boosted with 5 μg of melittin. Six days later, the mice were sacrificed, their spleens were harvested and the number of peptide-specific pfc determined.

Compound	T cell proliferation (in words) [1]	also measured
CC[C@H](C)[C@H](NC(=O)CN)C(=O)NCC(=O)N[C@@H](C)C(=O)N[C@H](C(=O)N[C@@H](CC(C)C)C(=O)N[C@@H](CCCCN)C(=O)N[C@H](C(=O)N[C@@H](CC(C)C)C(=O)N[C@H](C(=O)N[C@H](C(=O)NCC(=O)N[C@@H](CC(C)C)C(=O)N1CCC[C@H]1C(=O)N[C@@H](C)C(=O)N[C@@H](CC(C)C)C(=O)N[C@H](C(=O)N[C@@H](CO)C(=O)N[C@@H](Cc1c[nH]c2ccccc12)C(=O)N[C@H](C(=O)N[C@@H](CCCCN)C(=O)N[C@@H](CCCNC(=N)N)C(=O)N[C@@H](CCCCN)C(=O)N[C@@H](CCCNC(=N)N)C(=O)N[C@@H](CCC(N)=O)C(=O)N[C@@H](CCC(N)=O)C(N)=O)[C@@H](C)CC)[C@@H](C)CC)[C@@H](C)O)[C@@H](C)O)C(C)C)C(C)C [Melittin, reference compound]	showed T cell proliferation	–
Cys-Ile-Ser-Trp-Ile-Lys-Arg-Lys-Arg-Gln-Gln-Gly (CISWIKRKRQQG; printed: Cys-Ile-Ser-Trp-Ile-Lys-Arg-Lys-Arg-Gln-Gln-Gly) [Melittin Peptide #5]	showed T cell proliferation	–
Ile-Ser-Trp-Ile-Lys-Arg-Lys-Arg-Gln-Gln-Gly (ISWIKRKRQQG; printed: Ile-Ser-Trp-Ile-Lys-Arg-Lys-Arg-Gln-Gln-Gly) [Melittin Peptide #4]	showed T cell proliferation	–
N,N′-Bis-(3,5-bis-(iodoacetamido)benzoyl) derivative of α,ω-bis-(N-2-aminoethylcarbamoyl)polyethyleneglycol [Compound 3]	–	% Reduction ([2]; 250 μg/mouse i.p.): 67.3%; Peptide specific pfc per 10^6 spleen cells (Mean and S.D.) ([2]; 250 μg/mouse i.p.): 957 (298) pfc per 10^6 spleen cells; % Reduction ([2]; 500 μg/mouse i.p.): 83.3%; Peptide specific pfc per 10^6 spleen cells (Mean and S.D.) ([2]; 500 μg/mouse i.p.): 489 (one mouse) pfc per 10^6 spleen cells; % Reduction ([2]; 1000 μg/mouse i.p.): 86.8%; Peptide specific pfc per 10^6 spleen cells (Mean and S.D.) ([2]; 1000 μg/mouse i.p., boost 5 days later, spleens 6 days after boost): 386 (85) pfc per 10^6 spleen cells
SWIKRKRQQG [Melittin Peptide #3]	showed T cell proliferation	–
IKRKRQQG [Melittin Peptide #1]	no significant T cell proliferation	–
WIKRKRQQG [Melittin Peptide #2]	no significant T cell proliferation	–
